Measurements as given in US20230348376A1 (TEIJIN PHARMA LIMITED, priority 2020, published 2023).

Experiments:
[1] = Evaluation of brain penetration in mice (blood and brain concentration at brain Cmax); assay type: in vivo, mouse; conditions: 1 mg/kg single oral dose, C57BL/6J mice
Method in brief: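 Male C57BL/6J mice (8 weeks, n=3) dosed orally once at 1 […] mg/kg; plasma and brain collected at 0.25, 0.5, 1, 2, 4 and 8 h. Compound extracted with acetonitrile from brain homogenate and plasma, quantified by LC/MS/MS.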

[2] = system: rat oligodendrocyte progenitor cells; test: Promotive activity of rat oligodendrocyte progenitor cell differentiation-1 (MBP gene expression, mRNA); assay type: cell-based; conditions: Rattus norvegicus, Oligodendrocyte progenitor cell, 96 h, read-out: promotive activity at T3 base (MBP gene expression; DMSO 0%, T3 100%), 4 days, MBP/β actin mRNA
Method in brief: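 Primary OPCs from 1-day-old SD rat forebrain, isolated by shaking off mixed glial cultures and seeded at 2×10^3 cells/well in B27/CNTF (10 ng/mL) differentiation medium with compound. MBP mRNA measured by one-step TaqMan real-time PCR and expressed as MBP/β-actin ratio.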

- Concentration in blood (mean ± SD) at brain Cmax ([1]; n=3): 580 ± 107 nM
- Concentration in brain (mean ± SD) at brain Cmax ([1]; n=3): 595 ± 23 pmol/g
- Kp ([1]; male, C57BL/6J, mouse, brain/plasma, po, 1 mg/kg, read-out: Concentration in brain/in blood ratio at brain Cmax): 1.03
SMILES: C[C@H](CCN1CCOCC1)[C@H]1CC[C@H]2/C(=C/C=C3C[C@@H](O)C[C@H](O)C3)CCC[C@]12C [Compound D023, (1R,3R)-5-(2-((1R,3aS,7aR,E)-7a-methyl-1-((R)-4-morpholinobutan-2-yl)octahydro-4H-inden-4-ylidene)ethylidene)cyclohexane-1,3-diol]
- activation at 1 µM [2]: ≥ 20%
